In assay [1] the target is T1, EGFR L858R T790M in NCI-H1975 cell line (Homo sapiens, UniProt P00533, L858R/T790M).
T1 construct: host or cells: NCI-H1975
The assay can be described thus: NCI-H1975 pEGFR AlphaLISA assay. The format is cell-based. The following applies: NCI-H1975 cells (EGFR L858R T790M), p-EGFR (Tyr1068), 4-5 hours incubation; read-out: Ext pEGFR H1975 GMean IC50 (nM) Protocol: @Pharmaron AlphaLISA (Num). In outline:
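Phospho-EGFR measured by AlphaLISA after overnight donor-bead incubation; IC50 from percent pEGFR inhibition versus log concentration.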

The target in the next assay is T2, EGFR (L858R T790M C797S) (Homo sapiens, UniProt P00533, C797S/L858R/T790M).
T2 construct: purchased SignalChem E10-122VG
T2 sequence (P00533 25-1210 T790M/C797S/L858R): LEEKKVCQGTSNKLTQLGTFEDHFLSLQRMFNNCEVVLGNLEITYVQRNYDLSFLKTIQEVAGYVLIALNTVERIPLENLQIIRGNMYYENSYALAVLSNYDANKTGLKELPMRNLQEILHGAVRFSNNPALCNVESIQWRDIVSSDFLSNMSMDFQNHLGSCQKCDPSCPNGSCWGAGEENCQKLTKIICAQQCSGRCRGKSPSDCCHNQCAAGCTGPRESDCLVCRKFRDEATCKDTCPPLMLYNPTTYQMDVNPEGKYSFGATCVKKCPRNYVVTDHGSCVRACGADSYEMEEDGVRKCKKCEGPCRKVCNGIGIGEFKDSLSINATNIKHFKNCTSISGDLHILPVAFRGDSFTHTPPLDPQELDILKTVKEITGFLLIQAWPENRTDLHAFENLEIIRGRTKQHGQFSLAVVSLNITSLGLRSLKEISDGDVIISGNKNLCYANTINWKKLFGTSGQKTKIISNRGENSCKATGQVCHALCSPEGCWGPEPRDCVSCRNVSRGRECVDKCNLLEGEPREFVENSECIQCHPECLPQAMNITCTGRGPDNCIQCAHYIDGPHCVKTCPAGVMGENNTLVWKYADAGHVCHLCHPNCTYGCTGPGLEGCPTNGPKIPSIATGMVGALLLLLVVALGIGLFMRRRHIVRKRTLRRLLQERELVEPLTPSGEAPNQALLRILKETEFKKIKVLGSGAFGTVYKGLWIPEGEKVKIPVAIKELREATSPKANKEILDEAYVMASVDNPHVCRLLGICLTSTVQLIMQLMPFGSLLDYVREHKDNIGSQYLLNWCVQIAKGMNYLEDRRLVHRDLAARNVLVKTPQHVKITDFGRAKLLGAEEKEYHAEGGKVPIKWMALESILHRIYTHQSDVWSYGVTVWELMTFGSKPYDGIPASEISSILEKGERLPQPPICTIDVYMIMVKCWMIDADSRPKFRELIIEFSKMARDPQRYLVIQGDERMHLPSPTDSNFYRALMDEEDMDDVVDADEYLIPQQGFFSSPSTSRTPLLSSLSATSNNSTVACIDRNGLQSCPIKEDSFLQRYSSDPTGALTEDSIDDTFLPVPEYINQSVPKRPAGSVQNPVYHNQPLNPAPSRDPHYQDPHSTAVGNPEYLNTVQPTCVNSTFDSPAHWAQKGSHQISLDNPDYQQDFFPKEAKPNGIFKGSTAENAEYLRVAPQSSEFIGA
The assay can be described thus: Biochemical EGFR inhibition assay (Caliper mobility shift), EGFR LRTMCS mutant. The settings on record: LRTMCS (PH) IC50 (nM) @ 1 mM ATP (Num). In outline:
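Kinase reactions at 25 °C run to 10–20% peptide phosphorylation, stopped with 35 mM EDTA. Phosphorylated product and substrate separated electrophoretically by mobility shift. Apparent IC50 from percent activity versus log compound concentration.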

Assay [2] deals with EGFR mutant NSCLC (EGFR M+). The settings on record: NSCLC patients; average treatment time to resistance; cited from earlier work.

The structures appear in SMILES notation.

T1 sequence (P00533 25-1210 T790M/L858R): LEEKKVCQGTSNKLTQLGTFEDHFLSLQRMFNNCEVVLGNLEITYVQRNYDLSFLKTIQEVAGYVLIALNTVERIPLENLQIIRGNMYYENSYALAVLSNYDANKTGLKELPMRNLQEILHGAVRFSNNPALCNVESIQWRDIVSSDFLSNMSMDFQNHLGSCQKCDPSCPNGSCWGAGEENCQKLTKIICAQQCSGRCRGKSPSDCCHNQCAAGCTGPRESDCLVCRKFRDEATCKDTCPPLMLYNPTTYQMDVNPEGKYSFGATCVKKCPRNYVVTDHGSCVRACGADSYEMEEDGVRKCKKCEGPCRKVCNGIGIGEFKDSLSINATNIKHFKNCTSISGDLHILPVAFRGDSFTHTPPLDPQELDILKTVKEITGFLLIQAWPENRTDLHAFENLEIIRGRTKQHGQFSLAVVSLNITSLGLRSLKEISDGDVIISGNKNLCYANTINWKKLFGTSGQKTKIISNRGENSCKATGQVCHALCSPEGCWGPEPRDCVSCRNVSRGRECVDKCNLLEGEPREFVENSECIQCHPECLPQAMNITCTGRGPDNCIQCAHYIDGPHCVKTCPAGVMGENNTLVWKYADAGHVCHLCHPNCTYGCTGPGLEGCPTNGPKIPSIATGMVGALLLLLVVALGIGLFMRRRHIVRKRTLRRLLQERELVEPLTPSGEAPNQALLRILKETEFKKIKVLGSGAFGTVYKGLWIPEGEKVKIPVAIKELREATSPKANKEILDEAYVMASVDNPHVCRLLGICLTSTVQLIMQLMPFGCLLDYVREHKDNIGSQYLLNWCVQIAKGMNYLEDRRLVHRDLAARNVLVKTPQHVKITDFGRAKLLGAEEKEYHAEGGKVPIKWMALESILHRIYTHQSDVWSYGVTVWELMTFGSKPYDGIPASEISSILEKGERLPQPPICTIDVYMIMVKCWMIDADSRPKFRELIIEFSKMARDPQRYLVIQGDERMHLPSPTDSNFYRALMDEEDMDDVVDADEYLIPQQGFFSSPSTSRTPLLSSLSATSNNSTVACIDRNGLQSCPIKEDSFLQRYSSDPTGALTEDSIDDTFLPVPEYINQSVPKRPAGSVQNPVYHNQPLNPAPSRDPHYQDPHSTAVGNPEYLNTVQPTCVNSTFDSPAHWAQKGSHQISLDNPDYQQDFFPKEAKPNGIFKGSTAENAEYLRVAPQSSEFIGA

By IC50 is commonly meant the concentration at which inhibition is half-maximal. Turning to `CC(C)c1cnc(C(=O)N[C@H]2C[C@@H](C#N)C2)c2cnc(Nc3ccnc(N4CC[C@@H](O)[C@@](C)(F)C4)n3)cc12` [Example 81, N-((1r,3r)-3-cyanocyclobutyl)-6-((2-((3S,4R)-3-fluoro-4-hydroxy-3-methylpiperidin-1-yl)pyrimidin-4-yl)amino)-4-isopropyl-2,7-naphthyridine-1-carboxamide], the IC50 is 20 to 30 nM in assay [1] and less than 15 nM on EGFR (L858R T790M C797S).

For `CC(C)c1cnc(C(=O)N[C@H]2C[C@@](C)(O)C2)c2cnc(Nc3ccnc(N4CC[C@@H](O)[C@@](C)(F)C4)n3)cc12` [Example 83, 6-((2-((3S,4R)-3-fluoro-4-hydroxy-3-methylpiperidin-1-yl)pyrimidin-4-yl)amino)-N-((1s,3s)-3-hydroxy-3-methylcyclobutyl)-4-isopropyl-2,7-naphthyridine-1-carboxamide], the IC50 in assay [1] was 30 to 50 nM; on EGFR (L858R T790M C797S) it was less than 15 nM.

As for `CCO[C@H]1C[C@H](NC(=O)c2ncc(C(C)C)c3cc(Nc4ccnc(N5CC[C@@H](O)[C@@](C)(F)C5)n4)ncc23)C1` [Example 84, N-((1r,3r)-3-ethoxycyclobutyl)-6-((2-((3S,4R)-3-fluoro-4-hydroxy-3-methylpiperidin-1-yl)pyrimidin-4-yl)amino)-4-isopropyl-2,7-naphthyridine-1-carboxamide], the IC50 in assay [1] is 20 to 30 nM; at EGFR (L858R T790M C797S), less than 15 nM.

For the compound `CNc1ccc(C(C)C)c2cc(Nc3ccnc(N4CC[C@@H](O)[C@@](C)(F)C4)n3)ncc12` [Example 91, (3S,4R)-3-fluoro-1-(4-((5-isopropyl-8-(methylamino)isoquinolin-3-yl)amino)pyrimidin-2-yl)-3-methylpiperidin-4-ol], the IC50 is 20 to 30 nM in assay [1] and less than 15 nM on EGFR (L858R T790M C797S).

Consider `CNc1ncc(C(C)C)c2cc(Nc3ccnc(N4CC[C@@H](O)[C@@H](F)C4)n3)ncc12` [Example 92, (3S,4R)-3-fluoro-1-(4-((5-isopropyl-8-(methylamino)-2,7-naphthyridin-3-yl)amino)pyrimidin-2-yl)piperidin-4-ol], for which the IC50 in assay [1] is greater than 50 nM; on EGFR (L858R T790M C797S) it was 30 to 100 nM.

Turning to `CC(C)c1cnc(N(C)C)c2cnc(Nc3ccnc(N4CC[C@@H](O)[C@@H](F)C4)n3)cc12` [Example 94, (3S,4R)-1-(4-((8-(dimethylamino)-5-isopropyl-2,7-naphthyridin-3-yl)amino)pyrimidin-2-yl)-3-fluoropiperidin-4-ol], the half-inhibitory concentration (IC50) was greater than 50 nM in assay [1] and 30 to 100 nM at EGFR (L858R T790M C797S).

With `CNc1nnc(C(C)C)c2cc(Nc3ccnc(N4CC[C@@H](O)[C@@H](F)C4)n3)ncc12` [Example 95], the IC50 in assay [1] is greater than 50 nM; on EGFR (L858R T790M C797S) it was greater than 100 nM.

`C=CC(=O)Nc1cc(Nc2nccc(-c3cn(C)c4ccccc34)n2)c(OC)cc1N(C)CCN(C)C` [osimertinib]: the “time of treatment until resistance is observed” value in assay [2] is “approximately 10 months”.

Values taken from US20240299387A1, “HETEROCYCLIC EGFR INHIBITORS FOR USE IN THE TREATMENT OF CANCER” (Blueprint Medicines Corporation, priority 2021, published 2024).
